Holding throughout (format): cell-based
The test system of assay [1] is HEK293. The assay is described as follows: Selectivity for Alpha-1B N-type calcium channel over alpha-1G T-type calcium channel expressed in HEK293 cells at 10 uM. The conditions noted are these: Homo sapiens.
Assay [2] addresses Voltage-dependent N-type calcium channel subunit alpha-1B (Homo sapiens) (UniProt Q00975). The assay is described as follows: Inhibition of N-type calcium channel […] alpha-1B subunit expressed in HEK293 cells assessed as calcium current at 10 uM by patch-clamp assay. A general note: In patch-clamp work, channel activity is measured electrically.
Assay [3] concerns the target Voltage-dependent T-type calcium channel subunit alpha-1G (Homo sapiens) (UniProt O43497). The assay is described as follows: Inhibition of T-type calcium channel Cav3.1 alpha-1G subunit expressed in HEK293 cells assessed as calcium current at 10 uM by high throughput screening.
Assay [4] has the same target. The assay is described as follows: Inhibition of T-type calcium channel Cav3.1 alpha-1G subunit expressed in HEK293 cells assessed as calcium current at 10 uM by patch-clamp assay.
For assay [5], the system named is HEK293. Description: Selectivity for alpha-1B N-type calcium channel over alpha1G T-type calcium channel expressed in HEK293 cells. The conditions noted are these: Homo sapiens.

SMILES strings stand for the structures. Where only a bound is given, the exact number is not on record here.

What is called inhibition is the change of the read-out against control, counted positive when it falls.

Chain of Voltage-dependent T-type calcium channel subunit alpha-1G (Homo sapiens) (O43497 whole entry): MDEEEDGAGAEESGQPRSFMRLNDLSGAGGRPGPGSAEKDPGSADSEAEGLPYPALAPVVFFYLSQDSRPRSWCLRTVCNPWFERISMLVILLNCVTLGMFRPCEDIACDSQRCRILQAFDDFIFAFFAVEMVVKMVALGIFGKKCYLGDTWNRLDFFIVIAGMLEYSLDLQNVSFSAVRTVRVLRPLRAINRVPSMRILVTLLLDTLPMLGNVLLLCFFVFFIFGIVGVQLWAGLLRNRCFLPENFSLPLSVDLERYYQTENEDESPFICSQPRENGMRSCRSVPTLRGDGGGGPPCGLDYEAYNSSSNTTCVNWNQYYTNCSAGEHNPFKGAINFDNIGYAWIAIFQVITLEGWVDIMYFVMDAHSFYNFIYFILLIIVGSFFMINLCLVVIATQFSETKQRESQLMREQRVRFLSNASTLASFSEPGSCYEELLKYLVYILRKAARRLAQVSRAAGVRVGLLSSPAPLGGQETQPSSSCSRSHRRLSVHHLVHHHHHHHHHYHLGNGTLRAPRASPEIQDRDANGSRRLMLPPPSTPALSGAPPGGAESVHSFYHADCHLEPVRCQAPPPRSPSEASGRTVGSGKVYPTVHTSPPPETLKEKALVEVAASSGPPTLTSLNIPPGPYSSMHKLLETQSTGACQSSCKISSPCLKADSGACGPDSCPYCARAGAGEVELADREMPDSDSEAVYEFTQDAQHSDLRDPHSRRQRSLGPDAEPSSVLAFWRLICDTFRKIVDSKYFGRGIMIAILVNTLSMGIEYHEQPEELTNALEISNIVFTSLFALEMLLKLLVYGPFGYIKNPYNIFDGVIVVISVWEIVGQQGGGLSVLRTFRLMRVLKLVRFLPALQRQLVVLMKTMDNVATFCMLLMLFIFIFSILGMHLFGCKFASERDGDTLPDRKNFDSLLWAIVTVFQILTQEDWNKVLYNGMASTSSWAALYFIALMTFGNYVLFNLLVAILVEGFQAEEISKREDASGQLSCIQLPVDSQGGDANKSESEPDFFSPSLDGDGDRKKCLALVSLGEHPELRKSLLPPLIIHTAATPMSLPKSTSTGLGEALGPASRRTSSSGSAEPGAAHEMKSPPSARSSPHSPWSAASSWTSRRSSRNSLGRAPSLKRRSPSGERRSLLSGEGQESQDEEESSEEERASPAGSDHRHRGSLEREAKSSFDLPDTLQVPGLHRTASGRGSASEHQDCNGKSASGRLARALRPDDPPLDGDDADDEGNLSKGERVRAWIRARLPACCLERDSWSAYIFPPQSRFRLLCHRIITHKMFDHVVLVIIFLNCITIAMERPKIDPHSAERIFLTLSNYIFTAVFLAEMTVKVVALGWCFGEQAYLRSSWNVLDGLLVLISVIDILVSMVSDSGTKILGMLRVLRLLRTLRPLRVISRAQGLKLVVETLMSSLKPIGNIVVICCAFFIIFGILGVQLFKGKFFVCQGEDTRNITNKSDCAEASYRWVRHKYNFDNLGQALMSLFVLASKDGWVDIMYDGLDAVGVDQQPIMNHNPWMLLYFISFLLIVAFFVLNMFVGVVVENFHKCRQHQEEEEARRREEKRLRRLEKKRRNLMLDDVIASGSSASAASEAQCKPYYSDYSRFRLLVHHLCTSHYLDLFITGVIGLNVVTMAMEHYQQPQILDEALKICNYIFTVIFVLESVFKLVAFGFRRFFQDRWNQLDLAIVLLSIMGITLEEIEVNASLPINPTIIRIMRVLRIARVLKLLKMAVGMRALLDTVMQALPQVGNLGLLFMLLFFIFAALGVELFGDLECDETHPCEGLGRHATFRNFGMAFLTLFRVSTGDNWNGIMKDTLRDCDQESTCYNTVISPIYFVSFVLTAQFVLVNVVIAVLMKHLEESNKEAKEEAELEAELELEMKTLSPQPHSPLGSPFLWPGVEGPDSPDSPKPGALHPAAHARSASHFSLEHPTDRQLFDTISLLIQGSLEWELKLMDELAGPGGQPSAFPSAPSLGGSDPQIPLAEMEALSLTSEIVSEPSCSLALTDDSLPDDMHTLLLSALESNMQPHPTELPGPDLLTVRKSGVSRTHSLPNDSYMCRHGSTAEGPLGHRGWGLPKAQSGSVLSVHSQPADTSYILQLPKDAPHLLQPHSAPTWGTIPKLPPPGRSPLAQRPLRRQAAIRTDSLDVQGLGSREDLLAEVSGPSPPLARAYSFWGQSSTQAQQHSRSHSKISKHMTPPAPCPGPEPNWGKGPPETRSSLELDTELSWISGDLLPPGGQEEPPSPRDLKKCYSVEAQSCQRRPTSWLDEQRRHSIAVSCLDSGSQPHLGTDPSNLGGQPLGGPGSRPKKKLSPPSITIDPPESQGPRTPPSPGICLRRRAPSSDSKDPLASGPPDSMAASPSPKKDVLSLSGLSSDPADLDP
Chain of Voltage-dependent N-type calcium channel subunit alpha-1B (Homo sapiens) (Q00975 whole entry, looked up): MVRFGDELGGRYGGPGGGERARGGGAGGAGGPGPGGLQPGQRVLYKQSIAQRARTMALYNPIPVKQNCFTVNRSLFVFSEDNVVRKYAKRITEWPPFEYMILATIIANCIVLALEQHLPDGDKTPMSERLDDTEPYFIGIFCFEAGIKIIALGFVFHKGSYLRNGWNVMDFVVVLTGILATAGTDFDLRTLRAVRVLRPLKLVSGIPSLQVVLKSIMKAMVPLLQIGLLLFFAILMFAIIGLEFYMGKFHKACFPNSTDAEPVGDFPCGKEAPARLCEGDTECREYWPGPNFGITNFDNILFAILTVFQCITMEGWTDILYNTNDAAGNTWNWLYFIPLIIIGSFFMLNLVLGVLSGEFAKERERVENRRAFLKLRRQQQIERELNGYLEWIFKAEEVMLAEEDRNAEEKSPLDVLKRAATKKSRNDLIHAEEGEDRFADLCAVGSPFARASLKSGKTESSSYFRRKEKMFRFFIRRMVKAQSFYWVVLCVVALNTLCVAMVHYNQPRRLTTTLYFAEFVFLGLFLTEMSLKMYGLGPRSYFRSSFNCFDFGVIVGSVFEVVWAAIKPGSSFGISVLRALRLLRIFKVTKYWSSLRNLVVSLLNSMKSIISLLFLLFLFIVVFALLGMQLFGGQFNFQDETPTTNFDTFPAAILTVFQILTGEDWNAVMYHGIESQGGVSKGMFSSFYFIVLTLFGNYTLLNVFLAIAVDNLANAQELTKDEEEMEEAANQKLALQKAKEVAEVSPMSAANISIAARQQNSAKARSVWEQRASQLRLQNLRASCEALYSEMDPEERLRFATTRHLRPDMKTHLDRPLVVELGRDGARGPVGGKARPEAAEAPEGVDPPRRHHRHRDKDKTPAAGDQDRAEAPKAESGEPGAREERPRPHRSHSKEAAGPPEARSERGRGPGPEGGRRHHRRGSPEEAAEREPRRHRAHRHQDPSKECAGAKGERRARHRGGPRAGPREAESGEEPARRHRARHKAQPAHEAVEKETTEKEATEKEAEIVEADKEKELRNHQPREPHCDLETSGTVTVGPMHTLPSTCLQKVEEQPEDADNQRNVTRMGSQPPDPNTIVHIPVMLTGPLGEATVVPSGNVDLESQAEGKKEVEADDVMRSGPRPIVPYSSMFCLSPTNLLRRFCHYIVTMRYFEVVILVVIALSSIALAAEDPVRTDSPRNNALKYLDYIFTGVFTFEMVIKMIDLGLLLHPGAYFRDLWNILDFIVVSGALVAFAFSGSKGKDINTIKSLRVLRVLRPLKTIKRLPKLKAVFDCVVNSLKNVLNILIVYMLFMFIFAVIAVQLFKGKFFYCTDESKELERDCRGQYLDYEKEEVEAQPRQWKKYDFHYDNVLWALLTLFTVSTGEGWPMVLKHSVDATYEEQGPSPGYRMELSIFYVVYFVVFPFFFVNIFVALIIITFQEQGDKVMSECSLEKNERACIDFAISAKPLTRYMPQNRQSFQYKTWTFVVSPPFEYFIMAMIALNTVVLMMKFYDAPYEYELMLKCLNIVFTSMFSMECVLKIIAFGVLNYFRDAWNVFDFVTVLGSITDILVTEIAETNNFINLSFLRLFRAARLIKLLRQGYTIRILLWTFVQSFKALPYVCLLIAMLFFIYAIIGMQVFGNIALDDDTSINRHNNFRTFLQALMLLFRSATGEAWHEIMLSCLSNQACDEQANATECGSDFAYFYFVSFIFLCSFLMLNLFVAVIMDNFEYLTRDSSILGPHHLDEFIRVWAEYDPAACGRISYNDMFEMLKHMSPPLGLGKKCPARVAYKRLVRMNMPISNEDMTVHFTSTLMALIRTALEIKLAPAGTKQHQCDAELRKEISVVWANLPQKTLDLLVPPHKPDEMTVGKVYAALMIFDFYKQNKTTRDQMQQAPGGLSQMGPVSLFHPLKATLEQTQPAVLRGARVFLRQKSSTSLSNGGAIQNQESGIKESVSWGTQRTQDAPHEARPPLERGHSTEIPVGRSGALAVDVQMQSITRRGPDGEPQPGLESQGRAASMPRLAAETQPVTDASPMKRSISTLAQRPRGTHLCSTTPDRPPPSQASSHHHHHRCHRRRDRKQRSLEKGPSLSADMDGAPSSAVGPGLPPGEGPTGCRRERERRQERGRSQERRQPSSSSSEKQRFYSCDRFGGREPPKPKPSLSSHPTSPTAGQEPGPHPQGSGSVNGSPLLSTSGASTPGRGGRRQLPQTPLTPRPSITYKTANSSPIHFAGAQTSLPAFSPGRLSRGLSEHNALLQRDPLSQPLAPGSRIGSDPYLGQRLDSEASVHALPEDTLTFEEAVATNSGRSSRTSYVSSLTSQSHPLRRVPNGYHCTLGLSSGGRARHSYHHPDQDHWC

For `COC(=O)CC1c2ccccc2N=C(N(C)CCCCCN(C)C)N1c1ccc(-c2ccccc2)cc1` (stereo not drawn), the Selectivity ratio in the assay on HEK293 [1] came to 3.7. Besides, the inhibition in assay [2] came to 24.4%; in assay [3], 57.9%; in assay [4] it was 90.1%.
On to `COC(=O)CC1c2ccccc2N=C(NCCCCCN)N1c1ccc(-c2ccccc2)cc1` (stereo not drawn), for which the Selectivity ratio in the assay on HEK293 [1] is more than 100.
Consider `CN(C)CCCCCN(C)C1=Nc2ccccc2C(CC(=O)NCc2ccccc2)N1c1ccc(-c2ccccc2)cc1` (stereo not drawn), for which, in the assay with HEK293 [5], the Ratio IC50 amounted to 120. Also, in the assay with HEK293 [1], the Selectivity ratio stood at 1.4. Also, the figures for the inhibition in assay [2], in assay [3] and in assay [4] were 70.6%, 42.9% and 98%, respectively.
Turning to `COCC(=O)O[C@]1(CCN(C)CCCc2nc3ccccc3[nH]2)CCc2cc(F)ccc2[C@@H]1C(C)C`, the inhibition in assay [3] came out at 77.6%.
Consider `O=C(CC1c2ccccc2N=C(N2CCCCC2)N1c1ccccc1)NCc1ccccc1` (stereo not drawn), for which, in the assay on HEK293 [1], the Selectivity ratio came to 3.2. For the same molecule, the inhibition in assay [2] was 28.1%.

Source of the values: ChEMBL document CHEMBL1137510, “Discovery of potent T-type calcium channel blocker” (Bioorg Med Chem Lett, 2007).
